Laboratory results: ChEMBL document CHEMBL1147995, “In-vitro investigation of oxazol and urea analogues of morphinan at opioid receptors” (Bioorg Med Chem, 2007)

Experiments:
Mu-type opioid receptor [1] = target: T1, Mu-type opioid receptor (Homo sapiens, UniProt P35372); assay: Displacement of [3H]DAMGO from human mu opioid receptor expressed in CHO membrane; assay type: cell membranes
[2] = target: T2, Kappa-type opioid receptor (Homo sapiens, UniProt P41145); assay: Displacement of [3H]U69,593 from human kappa opioid receptor expressed in CHO membrane; assay type: cell membranes
[3] = target: T3, Delta-type opioid receptor (Homo sapiens, UniProt P41143); assay: Displacement of [3H]naltrindole from human delta opioid receptor expressed in CHO membrane at 10 uM; assay type: cell membranes
[4] = target: T2, Kappa-type opioid receptor; assay: Agonist activity at human kappa opioid receptor expressed in CHO cells assessed as stimulation of [35S]GTP-gamma-S binding after 60 mins; assay type: functional, cell-based
Mu-type opioid receptor [5] = target: T1, Mu-type opioid receptor; assay: Antagonist activity at human mu opioid receptor expressed in CHO cells assessed as inhibition of DAMGO-induced [35S]GTPgammaS binding after 60 mins; assay type: functional, cell-based
[6] = target: T3, Delta-type opioid receptor; assay: Displacement of [3H]naltrindole from human delta opioid receptor expressed in CHO membrane; assay type: cell membranes
[7] = target: T2, Kappa-type opioid receptor; assay: Agonist activity at human kappa opioid receptor expressed in CHO cells assessed as stimulation of [35S]GTP-gamma-S binding relative to basal level after 60 mins; assay type: functional, cell-based
Mu-type opioid receptor [8] = target: T1, Mu-type opioid receptor; assay: Agonist activity at human mu opioid receptor expressed in CHO cells assessed as stimulation of [35S]GTP-gamma-S binding after 60 mins; assay type: functional, cell-based
Mu-type opioid receptor [9] = target: T1, Mu-type opioid receptor; assay: Agonist activity at human mu opioid receptor expressed in CHO cells assessed as stimulation of [35S]GTP-gamma-S binding relative to basal level after 60 mins; assay type: functional, cell-based
[10] = Displacement of [3H]naltrindole from human delta opioid receptor expressed in CHO membrane

T2 sequence (P41145 whole entry): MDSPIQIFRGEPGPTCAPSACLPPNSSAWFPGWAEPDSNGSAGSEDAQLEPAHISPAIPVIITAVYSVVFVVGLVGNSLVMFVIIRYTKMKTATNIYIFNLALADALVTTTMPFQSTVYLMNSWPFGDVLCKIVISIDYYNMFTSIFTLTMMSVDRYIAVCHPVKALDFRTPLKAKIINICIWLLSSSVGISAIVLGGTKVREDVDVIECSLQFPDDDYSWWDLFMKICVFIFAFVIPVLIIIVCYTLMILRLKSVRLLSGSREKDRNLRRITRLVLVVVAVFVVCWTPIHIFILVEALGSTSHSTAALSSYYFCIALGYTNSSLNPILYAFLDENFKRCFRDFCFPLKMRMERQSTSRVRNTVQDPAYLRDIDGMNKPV
T3 sequence (P41143 whole entry): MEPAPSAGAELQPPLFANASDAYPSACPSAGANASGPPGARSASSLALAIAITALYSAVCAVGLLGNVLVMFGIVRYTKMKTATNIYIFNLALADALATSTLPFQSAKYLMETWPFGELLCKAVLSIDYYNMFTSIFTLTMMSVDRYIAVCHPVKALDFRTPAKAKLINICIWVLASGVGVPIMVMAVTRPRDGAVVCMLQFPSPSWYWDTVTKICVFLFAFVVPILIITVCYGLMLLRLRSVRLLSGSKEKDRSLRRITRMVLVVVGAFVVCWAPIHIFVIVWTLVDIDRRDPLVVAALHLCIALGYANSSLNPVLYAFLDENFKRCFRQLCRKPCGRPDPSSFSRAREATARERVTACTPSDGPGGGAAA
T1 sequence (P35372 whole entry): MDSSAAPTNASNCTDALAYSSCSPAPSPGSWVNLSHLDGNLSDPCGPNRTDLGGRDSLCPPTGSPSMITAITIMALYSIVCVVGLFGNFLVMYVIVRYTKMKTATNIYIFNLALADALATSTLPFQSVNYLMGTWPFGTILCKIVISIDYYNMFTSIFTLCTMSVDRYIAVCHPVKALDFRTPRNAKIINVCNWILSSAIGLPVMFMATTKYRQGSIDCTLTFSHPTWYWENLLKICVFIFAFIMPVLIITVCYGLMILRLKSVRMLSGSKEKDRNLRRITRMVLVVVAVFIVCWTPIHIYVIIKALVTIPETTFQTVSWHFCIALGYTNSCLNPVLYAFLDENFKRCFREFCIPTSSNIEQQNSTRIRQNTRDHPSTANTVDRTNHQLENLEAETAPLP

Compound	Ki (Mu-type opioid receptor [1])	Ki [2]	inhibition [3]	EC50 [4]	IC50 (Mu-type opioid receptor [5])	Imax (Mu-type opioid receptor [5])	Ki [6]	Emax [7]	EC50 (Mu-type opioid receptor [8])	Emax (Mu-type opioid receptor [9])	Ki [10]
Nc1nc2cc3c(cc2o1)[C@@]12CCCC[C@H]1[C@@H](C3)N(CC1CC1)CC2	150 nM	52 nM	18%								
Nc1nc2cc3c(cc2o1)[C@@]12CCCC[C@H]1[C@@H](C3)N(CC1CCC1)CC2	40 nM	6.6 nM	46%								
NC(=O)Nc1ccc2c(c1)[C@@]13CCCC[C@H]1[C@@H](C2)N(CC1CCC1)CC3	3.2 nM	8.9 nM		87 nM	1500 nM	35%	160 nM	64%	63 nM	33%	
O=c1[nH]c2cc3c(cc2o1)[C@@]12CCCC[C@H]1[C@@H](C3)N(CC1CCC1)CC2	5.8 nM	1.9 nM					360 nM				
O=c1[nH]c2cc3c(cc2o1)[C@@]12CCCC[C@H]1[C@@H](C3)N(CC1CC1)CC2	160 nM	47 nM	44%								
Nc1ccc2c(c1)[C@@]13CCCC[C@H]1[C@@H](C2)N(CC1CCC1)CC3											180 nM
Nc1ccc2c(c1)[C@@]13CCCC[C@H]1[C@@H](C2)N(CC1CC1)CC3	1.3 nM	0.18 nM									150 nM
CNC(=O)Nc1ccc2c(c1)[C@@]13CCCC[C@H]1[C@@H](C2)N(CC1CCC1)CC3	22 nM	20 nM					270 nM				
CNC(=O)Nc1ccc2c(c1)[C@@]13CCCC[C@H]1[C@@H](C2)N(CC1CC1)CC3	12 nM	2.3 nM		8.4 nM			50 nM	67%			
NC(=O)Nc1ccc2c(c1)[C@@]13CCCC[C@H]1[C@@H](C2)N(CC1CC1)CC3	1.4 nM	0.61 nM		33 nM	380 nM	52%	23 nM	84%	31 nM	21%	
